This passage reports Ki results from ChEMBL document CHEMBL5729279, “Cycloalkyl-diamines for the treatment of inflammation” (2022).

The target of this experiment is Sigma non-opioid intracellular receptor 1 (Homo sapiens, UniProt Q99720). The experiment is described as follows: Pharmacological Activity: Ki determinations were generously provided by the National Institute of Mental Health's Psychoactive Drug Screening Program (PDSP).
Sequence of Sigma non-opioid intracellular receptor 1 (Q99720 whole entry): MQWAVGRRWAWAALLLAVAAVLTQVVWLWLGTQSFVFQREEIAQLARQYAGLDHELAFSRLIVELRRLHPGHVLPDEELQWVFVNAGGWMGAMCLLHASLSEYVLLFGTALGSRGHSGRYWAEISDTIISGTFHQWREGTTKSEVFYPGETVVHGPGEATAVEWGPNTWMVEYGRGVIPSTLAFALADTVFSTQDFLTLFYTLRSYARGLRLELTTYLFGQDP

Regarding `CN[C@@]1(c2ccccc2Cl)CCCCC1NCCCN1CCCC1` (stereo partly specified), the affinity, expressed as Ki, was 37.2 nM. This counts as double-digit nanomolar.
